From a melting point compilation (Tetko et al.; mined from patent text by program, amines drawn as free bases though some values may be those of a salt)

Compound | melting point [°C]
CC(=O)OCC(OC(C)=O)c1nc2c(C(F)(F)F)cccc2c(O)c1C(=O)Nc1nccs1 (centres undefined) | 270
CCCCCCCCCCCCCCCCCCOCC(O)Cn1ccc(N)nc1=O (centres undefined) | 153 to 154
CCCc1nc2c(N)nc3ccccc3c2n1CCCON=C(C)C | 147 to 150
N=C(N)c1ccc2[nH]cc(CCN3C(=O)c4ccccc4C3=O)c2c1 | 206 to 209
CC(C)(C)Nc1ccccc1C(CCC1CCCCC1)C(=O)c1cccc(Cl)c1 (centres undefined) | 150 to 152
OC(c1ccccc1)(c1cc2ccccc2s1)C1CCN(CCc2ccccc2)CC1 (centres undefined) | 144 to 146
N#CC1(N)CCc2ccc3ccccc3c2C1 (centres undefined) | 75 to 78
COC(=O)COc1cccc2c1CCC(n1nc(-c3c(-c4ccccc4)nn4ccccc34)ccc1=O)C2=O (centres undefined) | 175 to 176
CC(=NNc1ccc(C(F)(F)F)cc1)C(=O)NCc1ccc(Cl)cc1 | 124 to 125
COc1c(Oc2ccc3ncc([N+](=O)[O-])n3n2)cnc(CNc2nc(C)nc(C)c2Cl)c1C | 230 to 232
C=CCn1nc(-c2ccc(OC)cc2)c(-c2ccc(OC)cc2)cc1=O | 114 to 115
CS(=O)(=O)N1CCN2C(=O)N(c3cc(Cl)cc(Cl)c3)C(=O)C2(Cc2ccc(Br)cc2)C1 (centres undefined) | 229
CC(C)(C)c1nc(CN2C(=O)C3(COc4cc5c(cc43)OCO5)c3ccccc32)no1 (centres undefined) | 183 to 185
Cc1nn(C2CCCCC2)c(N)c1C(N)=O | 181 to 182
O=C(c1ccc(=O)[nH]c1)n1ccnc1 | 200
COc1c(C)cc(C)cc1/C=C/C(=O)O | 178 to 180
CC(C)(C)c1ccc(C2(O)CN(C(c3ccccc3)c3ccccc3)C2)cc1 | 168 to 169
c1cncc(C2CCc3ccccc3O2)c1 (centres undefined) | 59 to 60
COC(=O)C(Cl)=Cc1cc([N+](=O)[O-])ccc1Cl | 108 to 110
O=Cc1cn(Cc2ccc(Cl)cc2)c2ccccc12 | 122
Cc1nnc(N2CCN(C=O)CC2)c2cc3ccccn3c12 | 325
CCCCC(CNc1nc(C)c(O)c(C(C)C)n1)c1ccccc1 (centres undefined) | 60 to 61
CCOc1ccc(OC(CCC(=O)O)C2(O)CN3CCC2CC3)cc1 (centres undefined) | 75 to 77
C=Cc1cn(C)c2cc(-c3ccccc3Cl)c3c(c12)C(=O)NC3=O | 200 to 205

Compound | melting point [°C]
O=C(O)c1c[nH]c2nc(NCc3ccccc3)nn2c1=O | 240 to 245
CN1C(=O)CC[C@]2(C)c3ccc(Sc4nc5ccccc5s4)cc3CC[C@@H]12 | 188 to 189
CN1C(=O)c2c(Oc3ccccc3O)cc3[nH]c4cc(O)ccc4c3c2C1=O | 200
CC(C)(C)c1cc(-c2ccc(F)cc2F)cc(C(=O)Nc2ccc(S(=O)(=O)C(F)(F)F)cc2Cl)c1O | 114 to 115
CCOC(=O)CC(C)(O)c1ccc(C2CCCCC2)cc1 (centres undefined) | 45
O=C(CCc1ccccc1)c1ccc(OCCO)cc1 | 41 to 43
C#CC1N(C(=O)Oc2ccccc2)c2ccc(OCc3ccccc3[N+](=O)[O-])cc2C23OC12CCCC3=O (centres undefined) | 128 to 130
NC(=O)NC1CCCCC1 | 175 to 176
CCCN1CCC=C(c2csc(NC(C)=O)n2)C1 | 109 to 112
Cc1c(CNCC2CCOCC2)[nH]c2c(C)c(NC(=O)c3ccc(OC[C@@H]4CCCO4)cc3)ccc12 | 184 to 185
C=C(CCC(C)C1CCC2(C)C3CCC4C(C)(C)C(O)CCC45CC35CCC12C)C(C)C (centres undefined) | 123 to 124
Cc1cccc(NC(=O)NC2CN(Cc3ccccc3)c3ccccc3N(CC(=O)c3ccccc3C)C2=O)c1 (centres undefined) | 169 to 172
COc1cccc(NC(=O)N[C@H]2C[C@@](N)(C(=O)O)[C@@H]3[C@@H](C(=O)O)[C@@H]32)c1 (relative stereo) | > 250
CS(=O)(=O)c1ccc(-c2cc(C(=O)c3ccc(Cl)cc3Cl)sc2N2CCOCC2)cc1 | 170
CN(C)C=CC(=O)c1ccccc1[N+](=O)[O-] | 118 to 121
CCc1cc(C(=O)NCc2ccc(-c3ccc(OC(F)F)cc3)cc2)n(C)n1 | 107 to 108
Cc1cc(-c2csc(-c3ccc(C(=O)O)cc3)n2)c(C)o1 | 264 to 265
CCCCCCCCOc1cnc(-c2ccc(CCCCCC(C)OC(C)=O)cc2)nc1 (single isomer, unassigned; (+)) | 73 to 74
CC(=NO)c1cccc(NC(=O)NC2N=C(c3ccccc3F)c3cccc(C)c3N(CC(=O)N3CC4CCC(CC4)C3)C2=O)c1 (centres undefined) | 199 to 208
COC(=O)CC1c2cc([N+](=O)[O-])ccc2N(C(C)=O)C1C (centres undefined) | 106
Cn1c(C(=O)O)cc(=O)c2oc3ccccc3c(=O)c21 | 220
O=C(O)C(O)=Cc1ccc([N+](=O)[O-])s1 | 192 to 193
CC(=O)Nc1nc2c(Oc3cc(-c4ccc(C(F)(F)F)cc4NC(=O)[C@@H]4CCN4CC(C)C)ncn3)cccc2s1 | 174 to 175
CCCCCCCCc1cc2c(s1)NC(=O)CN=C2c1ccccc1Cl | 131 to 133

Compound | melting point [°C]
Cc1cccc(Nc2cc(Nc3cccc(C)c3)ncn2)c1 | 242 to 244
CC=CC(=O)N(CCCCC(=O)O)C(c1ccccc1)c1ccccc1 | 88 to 89
Cc1ccccc1C(=S)NC(=O)Nc1ccc(Cl)cc1 | 211
CCCc1c(C(O)C(C)C)c2ccc(C#N)cc2n1Cc1ccccc1Cl (centres undefined) | 126 to 127
Cc1ccc(/C=C/c2sccc2S(=O)(=O)Nc2onc(C)c2Br)cc1 | 101 to 105
CN(C)C=NC(=O)c1c(N2CCN(Cc3ccccc3)CC2)nn2c(-c3cccc(C(F)(F)F)c3)ccnc12 | 140 to 142
NN(CCCCO)c1nc2ccccc2o1 | 87 to 90
Cc1cc(Cl)cc(C(=O)NC(C)C)c1NC(=O)c1cc(Br)nn1N1C=CC=C(Cl)C1 | 159 to 161
CC(=O)c1cc(NC(=O)NCCCN(CCCNC(=O)Nc2cc(C(C)=O)cc(C(C)=O)c2)CCCNC(=O)Nc2cc(C(C)=O)cc(C(C)=O)c2)cc(C(C)=O)c1 | 147 to 148
Cc1ccc(-c2cc(-c3ccc(Cl)cc3)n[nH]2)cc1 | 228
COC(=O)c1ccc(Cl)c(CBr)c1Cl | 51 to 54
C=CCn1c(OC)n[nH]c1=O | 111
CC(=NOCCCC(=O)O)c1ccc(Cl)cc1 | 106 to 108
C=CC[C@H]1C(=O)N[C@H]2CCN(C(=O)OCc3ccccc3)[C@@H]21 (relative stereo) | 160
O=C(Nc1cn(C2CCCCO2)nc1C(=O)NCCCOc1ccccc1)c1ccccn1 (centres undefined) | 106 to 107
Cc1cc2c(cc1C)[C@@H](O)[C@H](CN1CCC3(CC1)C(=O)NCN3c1ccccc1)CC2 (relative stereo) | 232 to 233
Cc1cc2c(=O)c3ccccc3oc2c2c1OC(C(=O)O)C2 (centres undefined) | 292 to 295
COC1=CC2=CCC3C(CCC4(C)C(C5=NC(OCc6ccccc6)OC5)=CCC34)C2(C)CC1 (centres undefined) | 115 to 125
O=C1NC(=O)C(c2ccc3cc(-c4ccc(O)c(C56CC7CC(CC(C7)C5)C6)c4)ccc3c2)S1 (centres undefined) | 312 to 314
Cc1nc(NC(=O)c2cnn3c(C(F)(F)F)cc(-c4ccc(C(F)(F)F)cc4)nc23)sc1S(=O)(=O)N(CCO)CCO | 214
Cn1nc(-c2c(F)cccc2Cl)nc1-c1ccc(OCc2ccc(C(F)(F)F)cc2Cl)c(Cl)c1 | 156 to 159
CC1Cc2cc(S(N)(=O)=O)cc(C(=O)NC3CCN(Cc4ccccc4)CC3)c2O1 (centres undefined) | 226 to 228
COC(=O)C1=C(C)NC(C)=C(C(=O)OCCCCN(C)CCC(c2ccccc2)c2ccccc2)C1c1cccc([N+](=O)[O-])c1 (centres undefined) | 91 to 103
Cc1ccc(-n2nc(C(C)(C)C)cc2NC(=O)NCc2ccccc2Oc2cc(N3CCOCC3)ncn2)cc1 | 128

Compound | melting point [°C]
C=Cn1cc(C(=O)O)c(=O)c2ccc(Cl)cc21 | 269
CC(C)(C)c1ccc(Oc2ccc([N+](=O)[O-])cc2C(=O)Nc2ccccc2)cc1 | 138 to 140
CN1CCN(C(=O)OC2c3ccccc3C(=O)N2c2ccc3ccc(C#N)nc3n2)CC1 (centres undefined) | 266 to 268
COC(=O)C1(CC#N)C(=O)N(Cc2ccc(Br)cc2F)C(=O)c2ccccc21 (centres undefined) | 108 to 110
Cc1cc(C)cc(CC(C)(C)NCC(O)c2cc(OCc3ccccc3)cc3c2OCC(=O)N3)c1 (centres undefined) | 220 to 222
Cc1ccccc1Cc1c(C)c(NC(=O)CC(C)(C)C)c(C)c2c1OC(C)(C)C2 | 175 to 176
CN1NC(=O)C2C(C1=O)C2(C)C (centres undefined) | 151 to 154
C=CCSc1ccc(Oc2ccc(C)cc2)nn1 | 115 to 117
C/C(=C(\C#N)C(=S)/N=C/N(C)C)N1CCCN(c2ccc(Cl)cc2)CC1 | 259 to 264
CCCCCCCCCCCCCCCCCCOc1cc(O)cc(N(CC(=O)O)CC(=O)O)c1 | 143 to 146
NC(=O)OCC(O)COc1noc2ccc(Cl)cc12 (centres undefined) | 123 to 124
CN(C)CCCN1N=C2C(=Cc3ccccc3)CCCCC2C1c1ccccc1 (centres undefined) | 92 to 94
CN(C)CCCN=C1CC(c2ccc(C(F)(F)F)cc2)Cc2c1c(=O)c1cc(Cl)ccc1n2O (centres undefined) | 130 to 135
COc1ccc(-c2oncc2CCC(=O)O)cc1 | 101 to 102
CCNC(=O)n1nc(Oc2ccc(F)cc2[N+](=O)[O-])cc1C | 81 to 84
CCOC(=O)C1(c2ccc(Cl)cc2)OCC2(CO1)c1ccccc1Oc1ccccc12 | 131 to 132
C=CC1=C(C)c2cc3[nH]c(cc4nc(cc5[nH]c(cc1n2)c(C)c5CCC(=O)OCCN(C)C)C(CCC(=O)OCCN(C)C)=C4C)c(C)c3C=C | 187 to 191
CC1CCN(Cc2ccccc2)C1=Nc1ccccc1N1CCOCC1 (centres undefined) | 96 to 97
NCCCCCCCC1OCC2(CO1)COC(CCCCCCCN)OC2 (centres undefined) | 74 to 75
CC1=C(c2ccccc2)C(=O)N(C(C)(C)c2ccccc2)CC1 | 108 to 109
Nc1c([N+](=O)[O-])cc(F)c(F)c1Cl | 86 to 88
CN(C)c1c(C=O)n(C)c(=O)n1-c1cccc(C(F)(F)F)c1 | 87 to 90
